From ChEMBL document CHEMBL1201862, “PubChem BioAssay data set” (2004)
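Dose response: 5 concentrations. Exposure: 48 h. Format: 96-well plates. Endpoint: linear interpolation; highest concentration if not reached. At the GI50, growth is halved.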 Activity calls are given as the source filed them. Rule as the data show it: active = GI50 up to about 1.1 µM and inactive = higher.

Legend:
Experiment in all cases: DTP human tumour cell line panel, 48 h
MOLT-4 = tested on: MOLT-4
MCF7 = tested on: MCF7
U-251 = tested on: U-251
SF-268 = tested on: SF-268
DU-145 = tested on: DU-145
HCT-15 = tested on: HCT-15
EKVX = tested on: EKVX
SK-OV-3 = tested on: SK-OV-3
BT-549 = tested on: BT-549
Hs-578T = tested on: Hs-578T
M14 = tested on: M14
KM12 = tested on: KM12
LOX IMVI = tested on: LOX IMVI
DMS-114 = tested on: DMS-114
SN12C = tested on: SN12C
CCRF-CEM = tested on: CCRF-CEM
SK-MEL-28 = tested on: SK-MEL-28
A498 = tested on: A498
MDA-MB-435 = tested on: MDA-MB-435
OVCAR-8 = tested on: OVCAR-8

Sc1nc(S)nc(Oc2ccc(Cl)c(Cl)c2)n1
GI50 (MOLT-4): 18.1 µM (inactive) | GI50 (MCF7): 50.6 µM (inactive) | GI50 (U-251): 44.8 µM (inactive) | GI50 (SF-268): > 52.4 µM (inactive) | GI50 (DU-145): 57.9 µM (inactive) | GI50 (HCT-15): 43.5 µM | GI50 (EKVX): 42.1 µM (inactive) | GI50 (SK-OV-3): > 51.5 µM (inactive) | GI50 (BT-549): 57.8 µM (inactive) | GI50 (Hs-578T): 89.1 µM (inactive) | GI50 (M14): 43.5 µM (inactive) | GI50 (KM12): 14.6 µM (inactive) | GI50 (LOX IMVI): 18.1 µM (inactive) | GI50 (DMS-114): 19.1 µM (inactive) | GI50 (SN12C): 37.9 µM (inactive) | GI50 (CCRF-CEM): 23.2 µM (inactive) | GI50 (SK-MEL-28): > 54 µM (inactive) | GI50 (A498): 24 µM (inactive) | GI50 (MDA-MB-435): > 100 µM (inactive) | GI50 (OVCAR-8): 32.5 µM (inactive)

CCCC(=O)OCC1OC(n2ccc(N)nc2=O)C(OC(=O)CCC)C1OC(=O)CCC (stereo not given)
GI50 (MOLT-4): 0.33 µM (active) | GI50 (MCF7): 8.09 µM (inactive) | GI50 (U-251): 35 µM (inactive) | GI50 (SF-268): > 42.4 µM (inactive) | GI50 (HCT-15): 72.4 µM | GI50 (EKVX): 2.25 µM (inactive) | GI50 (SK-OV-3): > 100 µM (inactive) | GI50 (KM12): > 100 µM (inactive) | GI50 (LOX IMVI): 3.03 µM (inactive) | GI50 (DMS-114): > 100 µM (inactive) | GI50 (SN12C): 16.5 µM (inactive) | GI50 (CCRF-CEM): 0.203 µM (active) | GI50 (SK-MEL-28): 15.1 µM (inactive) | GI50 (A498): 5.77 µM (inactive) | GI50 (OVCAR-8): 6.1 µM (inactive)

C/N=c1\ss/c(=N\C(=S)N(C)C)n1-c1ccccc1
GI50 (MOLT-4): > 100 µM (inactive) | GI50 (U-251): 67 µM (inactive) | GI50 (SF-268): 34 µM (inactive) | GI50 (HCT-15): > 100 µM | GI50 (EKVX): > 100 µM (inactive) | GI50 (SK-OV-3): > 100 µM (inactive) | GI50 (M14): > 100 µM (inactive) | GI50 (KM12): > 100 µM (inactive) | GI50 (LOX IMVI): > 100 µM (inactive) | GI50 (DMS-114): > 67.8 µM (inactive) | GI50 (SN12C): > 100 µM (inactive) | GI50 (CCRF-CEM): > 100 µM (inactive) | GI50 (SK-MEL-28): > 100 µM (inactive) | GI50 (A498): 44.6 µM (inactive) | GI50 (OVCAR-8): > 100 µM (inactive)

CC12CCC(C(=O)N3CC=CCC3)(OC1=O)C2(C)C (stereo not given)
GI50 (MOLT-4): > 100 µM (inactive) | GI50 (MCF7): > 100 µM (inactive) | GI50 (U-251): > 100 µM (inactive) | GI50 (SF-268): > 100 µM (inactive) | GI50 (HCT-15): > 100 µM | GI50 (EKVX): > 100 µM (inactive) | GI50 (SK-OV-3): > 100 µM (inactive) | GI50 (KM12): > 100 µM (inactive) | GI50 (LOX IMVI): > 100 µM (inactive) | GI50 (DMS-114): > 100 µM (inactive) | GI50 (SN12C): > 100 µM (inactive) | GI50 (CCRF-CEM): > 82.8 µM (inactive) | GI50 (SK-MEL-28): > 100 µM (inactive) | GI50 (A498): > 100 µM (inactive) | GI50 (OVCAR-8): > 100 µM (inactive)

CC(=O)OCCOCNC(=S)N/N=C(\C)c1cnc2ccccc2n1
GI50 (MOLT-4): 28.6 µM (inactive) | GI50 (U-251): 29.1 µM (inactive) | GI50 (SF-268): 10.4 µM (inactive) | GI50 (HCT-15): 34 µM | GI50 (EKVX): 8.53 µM (inactive) | GI50 (SK-OV-3): 33.3 µM (inactive) | GI50 (M14): 36 µM (inactive) | GI50 (KM12): 46.5 µM (inactive) | GI50 (LOX IMVI): 38.6 µM (inactive) | GI50 (DMS-114): 15.6 µM (inactive) | GI50 (SN12C): 50.4 µM (inactive) | GI50 (CCRF-CEM): 7.46 µM (inactive) | GI50 (SK-MEL-28): 43.6 µM (inactive) | GI50 (A498): > 100 µM (inactive) | GI50 (OVCAR-8): 33.9 µM (inactive)

CC(C)OC(=O)c1cc(NC(=O)C(C)(C)C)c(F)cc1Cl
GI50 (MOLT-4): > 100 µM (inactive) | GI50 (U-251): > 100 µM (inactive) | GI50 (SF-268): > 100 µM (inactive) | GI50 (HCT-15): > 100 µM | GI50 (EKVX): > 100 µM (inactive) | GI50 (SK-OV-3): > 100 µM (inactive) | GI50 (M14): > 100 µM (inactive) | GI50 (KM12): > 100 µM (inactive) | GI50 (LOX IMVI): > 100 µM (inactive) | GI50 (DMS-114): > 100 µM (inactive) | GI50 (SN12C): > 100 µM (inactive) | GI50 (CCRF-CEM): > 100 µM (inactive) | GI50 (SK-MEL-28): > 100 µM (inactive) | GI50 (A498): > 100 µM (inactive) | GI50 (OVCAR-8): > 100 µM (inactive)

CC1S(=O)(=O)OCCOS1(=O)=O
GI50 (MOLT-4): 18 µM (inactive) | GI50 (U-251): 28.8 µM (inactive) | GI50 (SF-268): 32.1 µM (inactive) | GI50 (HCT-15): > 100 µM | GI50 (EKVX): > 100 µM (inactive) | GI50 (SK-OV-3): > 100 µM (inactive) | GI50 (M14): > 100 µM (inactive) | GI50 (KM12): > 100 µM (inactive) | GI50 (LOX IMVI): 52.2 µM (inactive) | GI50 (DMS-114): 39.2 µM (inactive) | GI50 (SN12C): 77.4 µM (inactive) | GI50 (CCRF-CEM): 50 µM (inactive) | GI50 (SK-MEL-28): > 100 µM (inactive) | GI50 (A498): > 100 µM (inactive) | GI50 (OVCAR-8): > 100 µM (inactive)
